This experiment deals with HCV 1b genotype. Nature of the experiment: HCV Replicon assay (HCV-neo replicon cells, wild-type). Particulars: Hepatitis C virus, HCV 1b genotype replicon; for pEC50: class symbols, read-out: EC50 Range; for EC50: read-out: EC50. The format is cell-based. The method, then: An HCV Replicon assay was utilized in the present disclosure, and was prepared, conducted and validated as described in commonly owned PCT/US2006/022197 and in O'Boyle et. al. Antimicrob Agents Chemother. 2005 Apr;49(4):1346-53. Assay methods incorporating luciferase reporters have also been used as described (Apath.com).
HCV-neo replicon cells and replicon cells containing mutations in the NS5A region were used to test the currently described family of compounds. The compounds were determined to have more than 10-fold less inhibitory activity on cells containing mutations than wild-type cells. Thus, the compounds of the present disclosure can be effective in inhibiting the function of the HCV NS5A protein and are understood to be as effective in combinations as previously described in application PCT/US2006/022197 and commonly owned WO/O4014852. Further, the compounds of the present disclosure can be effective against the HCV 1b genotype. It should also be understood that the compounds of the present disclosure can inhibit multiple genotypes of HCV. […] In one embodiment, compounds of the present disclosure are inhibitory versus 1a, 1b, 2a, 2b, 3a, 4a, and 5a genotypes.
For orientation: Replicon systems follow genome replication, usually without infectious particles.

Each structure is given as a SMILES string. pEC50: −log10 of the molar value. Where two headings read alike, the source gives them in different places.

One may read the pEC50 as −log10 of the EC50, conventionally taken in molar units. The term EC50 denotes the concentration at which the effect is half-maximal. For `COC(=O)N[C@H](C(=O)N1CCC[C@H]1c1nc[nH]c1-c1cccc(C#Cc2ccc3[nH]c([C@@H]4CCCN4C(=O)[C@H](NC(=O)OC)C(C)C)nc3c2)c1)C(C)C` (stereo in doubt) [J.281, methyl ((1S)-1-(((2S)-2-(5-(3-((2-((2S)-1-((2R)-2-((methoxycarbonyl)amino)-3-methylbutanoyl)-2-pyrrolidinyl)-1H-benzimidazol-5-yl)ethynyl)phenyl)-1H-imidazol-4-yl)-1-pyrrolidinyl)carbonyl)-2-methylpropyl)carbamate], the pEC50 is 7.00 to 8.34. For the setting “values in nM”, the EC50 worked out at 7 nM. In the case of `COC(=O)N[C@H](C(=O)N1[C@@H]2C[C@@H]2C[C@H]1c1nc2c([nH]1)-c1ccc(-c3ccc4[nH]c([C@@H]5C[C@H]6C[C@H]6N5C(=O)[C@@H](NC(=O)OC)C(C)C)nc4c3)cc1CCC2)C(C)C` [J.24, methyl ((1S)-1-(((1R,3S,5R)-3-(8-(2-((1R,3S,5R)-2-((2S)-2-((methoxycarbonyl)amino)-3-methylbutanoyl)-2-azabicyclo[3.1.0]hex-3-yl)-1H-benzimidazol-5-yl)-1,4,5,6-tetrahydrobenzo[3,4]cyclohepta[1,2-d]imidazol-2-yl)-2-azabicyclo[3.1.0]hex-2-yl)carbonyl)-2-methylpropyl)carbamate], the EC50 (values given in pM) was 0.01 nM. `COC(=O)N[C@H](C(=O)N1CCC[C@H]1c1nc(-c2ccc(-c3ccc(-c4ccc5[nH]c([C@@H]6CCCN6C(=O)[C@@H](NC(=O)OC)C(C)C)nc5c4)cc3)cc2)c[nH]1)C(C)C` [J.26, methyl ((1S)-1-(((2S)-2-(5-(4'-(2-((2S)-1-((2S)-2-((methoxycarbonyl)amino)-3-methylbutanoyl)-2-pyrrolidinyl)-1H-imidazol-4-yl)-4-biphenylyl)-1H-benzimidazol-2-yl)-1-pyrrolidinyl)carbonyl)-2-methylpropyl)carbamate]: the EC50 (values given in pM) came out at 0.005 nM.

Take `COC(=O)N[C@@H](C(=O)N1CCC[C@H]1c1nc2cc(-c3ccc(-c4ccc5c(ccc6nc([C@@H]7CCCN7C(=O)[C@H](NC(=O)OC)c7ccccc7)[nH]c65)c4)cc3)ccc2[nH]1)c1ccccc1` [J.27c, methyl ((1R)-2-((2S)-2-(7-(4-(2-((2S)-1-((2R)-2-((methoxycarbonyl)amino)-2-phenylacetyl)-2-pyrrolidinyl)-1H-benzimidazol-5-yl)phenyl)-1H-naphtho[1,2-d]imidazol-2-yl)-1-pyrrolidinyl)-2-oxo-1-phenylethyl)carbamate]: the EC50 (values given in pM) turned out to be 0.003 nM. `COC(=O)N[C@H](C(=O)N1CCC[C@H]1c1nc2c(F)cc(C#Cc3ccc4c(ccc5nc([C@@H]6CCCN6C(=O)[C@@H](NC(=O)OC)C(C)C)[nH]c54)c3)cc2[nH]1)C(C)C` [J.28h, methyl ((1S)-1-(((2S)-2-(4-fluoro-6-((2-((2S)-1-((2S)-2-((methoxycarbonyl)amino)-3-methylbutanoyl)-2-pyrrolidinyl)-1H-naphtho [1,2-d]imidazol-7-yl)ethynyl)-1H-benzimidazol-2-yl)-1-pyrrolidinyl)carbonyl)-2-methylpropyl)carbamate]: for the setting “values given in pM”, the EC50 turned out to be 0.12 nM. As for `COC(=O)NC(C(=O)N1[C@@H](C)CC[C@H]1c1nc2ccc3cc(C#Cc4ccc5[nH]c([C@@H]6CC[C@H](C)N6C(=O)[C@@H](NC(=O)OC)C(C)C)nc5c4)ccc3c2[nH]1)C1CCOCC1` (stereo partly drawn) [J.28i.4a, methyl ((1S)-1-(((2S,5S)-2-(5-((2-((2S,5S)-1-(((methoxycarbonyl)amino)(tetrahydro-2H-pyran-4-yl)acetyl)-5-methyl-2-pyrrolidinyl)-1H-naphtho[1,2-d]imidazol-7-yl)ethynyl)-1H-benzimidazol-2-yl)-5-methyl-1-pyrrolidinyl)carbonyl)-2-methylpropyl)carbamate], the EC50 (values in nM) was found to be 3.8 nM. Turning to `CCN(CC)[C@@H](C(=O)N1CCC[C@H]1c1nc2cc(C#Cc3cccc(-c4[nH]cnc4[C@@H]4CCCN4C(=O)[C@@H](c4ccccc4)N(CC)CC)c3)ccc2[nH]1)c1ccccc1` [J.28m, (1R)-2-((2S)-2-(5-(3-((2-((2S)-1-((2R)-2-(diethylamino)-2-phenylacetyl)-2-pyrrolidinyl)-1H-benzimidazol-5-yl)ethynyl)phenyl)-1H-imidazol-4-yl)-1-pyrrolidinyl)-N,N-diethyl-2-oxo-1-phenylethanamine], the pEC50 is 7.00 to 8.34. For the same molecule, the EC50 (values in nM) was 55.7 nM. On to `COc1cccc2c(C(=O)N3CCC[C@H]3C(=O)Nc3cccc(-c4ncc(-c5ccc6[nH]c([C@@H]7CCCN7C(=O)c7nc(Cl)cc8c(OC)cccc78)nc6c5)o4)c3)nc(Cl)cc12` [J.48d, 1-((3-chloro-5-methoxy-1-isoquinolinyl)carbonyl)-N-(3-(5-(2-((2S)-1-((3-chloro-5-methoxy-1-isoquinolinyl)carbonyl)-2-pyrrolidinyl)-1H-benzimidazol-5-yl)-1,3-oxazol-2-yl)phenyl)-L-prolinamide], for which the pEC50 is 6.00 to 7.00. For the same molecule, the EC50 (values in nM) amounted to 147 nM. `O=C(Nc1ccc(-c2ncc(-c3ccc4[nH]c([C@@H]5CCCN5C(=O)[C@H](O)c5ccccc5)nc4c3)o2)cc1)[C@@H]1CCCN1C(=O)[C@H](O)c1ccccc1` [J.50, 1-((2R)-2-hydroxy-2-phenylacetyl)-N-(4-(5-(2-((2S)-1-((2R)-2-hydroxy-2-phenylacetyl)-2-pyrrolidinyl)-1H-benzimidazol-5-yl)-1,3-oxazol-2-yl)phenyl)-L-prolinamide]: the negative logarithm of the EC50 (pEC50) is 7.00 to 8.34. With `COc1cccc2c(C(=O)N3CCC[C@H]3C(=O)Nc3ccc(-c4ncc(-c5ccc6[nH]c([C@@H]7CCCN7C(=O)c7nc(Cl)cc8c(OC)cccc78)nc6c5)o4)cc3)nc(Cl)cc12` [J.50c, 1-((3-chloro-5-methoxy-1-isoquinolinyl)carbonyl)-N-(4-(5-(2-((2S)-1-((3-chloro-5-methoxy-1-isoquinolinyl)carbonyl)-2-pyrrolidinyl)-1H-benzimidazol-5-yl)-1,3-oxazol-2-yl)phenyl)-L-prolinamide], the pEC50 is 5.00 to 6.00. Also, for the setting “value given in µM”, the concentration for a half-maximal effect (EC50) is more than 10000 nM.

As for `O=C(Nc1ccc(-c2ncc(-c3ccc4[nH]c([C@@H]5CCCN5C(=O)[C@H](O)c5ccccc5)nc4c3)o2)cc1F)[C@@H]1CCCN1C(=O)[C@H](O)c1ccccc1` [J.51, N-(2-fluoro-4-(5-(2-((2S)-1-((2R)-2-hydroxy-2-phenylacetyl)-2-pyrrolidinyl)-1H-benzimidazol-5-yl)-1,3-oxazol-2-yl)phenyl)-1-((2R)-2-hydroxy-2-phenylacetyl)-L-prolinamide], the pEC50 was 7.00 to 8.34. With `COc1cccc2c(C(=O)N3CCC[C@H]3C(=O)Nc3ccc(-c4ncc(-c5ccc6[nH]c([C@@H]7CCCN7C(=O)c7nc(Cl)cc8c(OC)cccc78)nc6c5)o4)cc3F)nc(Cl)cc12` [J.51b, 1-((3-chloro-5-methoxy-1-isoquinolinyl)carbonyl)-N-(4-(5-(2-((2S)-1-((3-chloro-5-methoxy-1-isoquinolinyl)carbonyl)-2-pyrrolidinyl)-1H-benzimidazol-5-yl)-1,3-oxazol-2-yl)-2-fluorophenyl)-L-prolinamide], the pEC50 is 6.00 to 7.00. The same measure, in the same setting: in the case of `Cc1ccc(-c2ncc(-c3ccc4[nH]c([C@@H]5CCCN5C(=O)[C@@H](c5ccccc5)N(C)C)nc4c3)o2)cc1NC(=O)[C@@H]1CCCN1C(=O)CN(C)C` [J.52a, N,N-dimethylglycyl-N-(5-(5-(2-((2S)-1-((2R)-2-(dimethylamino)-2-phenylacetyl)-2-pyrrolidinyl)-1H-benzimidazol-5-yl)-1,3-oxazol-2-yl)-2-methylphenyl)-L-prolinamide] it was 7.00 to 8.34.

The values are drawn from patent EP2601188B1, “HEPATITIS C VIRUS INHIBITORS” (Bristol-Myers Squibb Company, priority 2010, dated 2012).
